Source: patent US20100093616A1 (priority 2005, published 2010)

What was measured:
Format in all cases: in vivo, Lewis Rats
[1] = system: Experimental Autoimmune Encephalytis (EAE); experiment: Prophylactic scheme in EAE animal model (Example 2); conditions: for Clinical scores maximum / Clinical scores minimum / Incidence (%): EGF/GHRP-6 200-740, EGF 200, GHRP-6 740 μg/kg/day; for N° of perivascular inflammatory infiltrates (Means ± SD): brain and spinal cord, day 40, EGF/GHRP-6 200-740, EGF 200, GHRP-6 740 μg/kg/day; for Incidence (%): i.p. days -10 to -1 before first immunization, 8 rats per group
Excerpt: (§1) This prophylactic scheme was followed for 10 days (−10 to −1 day before the first immunization), using the intraperitoneal administration route. Clinical scores was based on the following grading: 0; no symptom, 1; tail paralysis, 2; paralysis of any of the hind limbs, 3; full paralysis of the hind limbs, 4; complete paralysis of the fore and hind limbs 5; moribund or death. Weight loss and vesical and rectal sphincter incontinency, which are also clinical signs of the disease, are scored by adding 0.5 to the clinical index previously described. Forty days after the first immunization the animals were anesthetized and euthanized, the encephalon and spinal cord were processed for histopathological study (10% de formalin, H & E y Luxol Blue staining). For the histopathological analysis the following parameters were consider: number and size of perivascular inflammatory infiltrates, number of demyelination lesions, number of apoptotic neurons and glial cells and astrocytes reactivity. The microscopic study was blindly conducted.

[2] = system: Experimental Autoimmune Encephalytis (EAE); experiment: Therapeutical effect in EAE biomodel (Example 1); conditions: therapeutical scheme; for N° of perivascular inflammatory infiltrates (Means ± SD): brain and spinal cord, day 40; for Incidence (%): i.p. 10 days from day 10 after first immunization, EGF/GHRP-6 200-740 μg/kg/day, EGF 200 μg/kg/day, GHRP-6 740 μg/kg/day, 8 rats per group
Experimental: as §1, with “Female Lewis Rats (130 g), were subcutaneously immunized with guinea pig spinal cord homogenate (5 mg) in PBS (50%) and complete Freund adjuvant (50%), during days 0 and 6. […] This” for “This”, “therapeutical” for “prophylactic”, “days,” for “days (−10 to −1 day before the first immunization),”, “using” for “using the”, “administration.” for “administration route.”

[3] = system: Experimental Autoimmune Encephalytis (EAE); experiment: Dose study of the combination in EAE model, therapeutical scheme (Example 3); conditions: EGF component of the combination
Experimental: Looking for a range of doses for the pharmaceutical combination that would be efficient for the therapeutic effects, it was used in the afore mentioned EAE model Female Lewis Rats (130 g), were subcutaneously immunized with guinea pig spinal cord homogenate (5 mg) in PBS (50%) and complete Freund adjuvant (50%), during days 0 and 6.
as §1, with “therapeutical” for “prophylactic”, “days,” for “days (−10 to −1 day before the first immunization),”, “using” for “using the”, “administration.” for “administration route.”

[4] = i.p. days -10 to -1, EGF/GHRP-6 200-740, EGF 200, GHRP-6 740 μg/kg/day
[5] = EGF/GHRP-6 200-740, EGF 200, GHRP-6 740 μg/kg/day
[6] = i.p. 10 days, EGF/GHRP-6 200-740, EGF 200, GHRP-6 740 μg/kg/day
[7] = i.p. 10 days, EGF/GHRP-6 200-740, EGF 200, GHRP-6 740 μg/kg/day, scale 0-5

| Substance | Clinical scores maximum ([1]; scale 0-5) | Clinical scores minimum ([1]; scale 0-5) | N° of perivascular inflammatory infiltrates (Means ± SD) [1] | Days of Debut (Mean ± SD) [1, 4] | Clinical scores Means ± SD (mean clinical index) ([1]; i.p. days -10 to -1, EGF/GHRP-6 200-740, EGF 200, GHRP-6 740 μg/kg/day, scale 0-5) | Incidence (%) [1] | N° of perivascular inflammatory infiltrates (Means ± SD) [2, 5] | Incidence (%) [2] | Days of Debut (Mean ± SD) [2, 6] | Disease duration [2, 6] | Clinical Scores Mean ± SD (mean clinical index) [2, 7] | Clinical scores maximum [2, 7] | Clinical scores minimum [2, 7] | dose range that maintains usefulness of the combination for protection against induction of EAE [3] |
| --- | --- | --- | --- | --- | --- | --- | --- | --- | --- | --- | --- | --- | --- | --- |
| His-D-Trp-Ala-Trp-D-Phe-Lys-NH sub 2 [GHRP-6] | 4 | 1 | 2.7 ± 1.95 | 11.7 ± 2.3 days | 2.7±1.03 | 100% | 2.25 ± 1.25 | 100% | 13.7 ± 2.3 days | 15.5 ± 6.7 | 1.5±1.6 | 4 | 0.5 |  |
| Epidermal Growth Factor [EGF] | 4 | 1 | 4 ± 1.6 | 11.5 ± 0.57 days |  | 100% | 4.5 ± 1.9 | 100% | 12.5 ± 0.57 days | 12.7 ± 4.1 |  |  | 1 | 50 to 400 µg/kg/day |
